# Earlier results, collected in patent US20250339338A1, “BLOOD STORAGE CONTAINER CONTAINING AQUEOUS COMPOSITION FOR THE STORAGE OF RED BLOOD CELLS” (Hemerus Medical, LLC, priority 2013, published 2025).
# System: humans
# Details: in vivo
structure (smiles),measurement,value
"CCCCC(CC)COC(=O)c1ccccc1C(=O)OCC(CC)CCCC (stereo not shown) [DEHP, di-ethylhexyl phthalate]",adverse health effects found in studies in humans,"adverse health effects such as respiratory distress, choleostasis, and histological abnormalities of the liver"
